Source: US20160368872A1, “COMPOUNDS AND METHODS FOR TREATING CANCERS” (HEALTH RESEARCH, INC., priority 2013, published 2016)

Key:
Assay in all cases: inhibition of growth of cell lines (IC50 categories)
Type in all cases: cell-based
CWR22R = conditions: Homo sapiens, 22Rv1
Method: (§1) This example provides a table (below) of the compounds of the present disclosure and their activity towards four different cell lines (i.e., CWR22R, Hela, PC3, and MDA-MB-231). The IC50 for inhibition of growth is divided into 4 categories: A<1 μM, B 1-5 μM, […], D>20 μM.
(§2) All compounds were tested for toxicity using 4 cells lines, target cells-CWR22R and non-target cells, Hela, PC3 and MDA-MB-231 (FIGS. 1A-F).

Hela = conditions: Homo sapiens
Method: as §1, §2

MDA-MB-231 = conditions: Homo sapiens
Method: as §1, §2

PC3 = conditions: Homo sapiens, PC-3
Method: as §1, §2

Compound	IC50 (Hela) [µM]	IC50 (MDA-MB-231) [µM]	IC50 (PC3) [µM]	IC50 (CWR22R) [µM]
O=C1CCCc2c1ccc1c2c2ccccc2n1CCCF [Compound 1-5]	> 20	> 20	> 20	< 1
O=C1CCOc2c1ccc1c2c2ccccc2n1CCCF [Compound 1-9]	> 20	> 20	> 20	< 1
O=C1CCc2c1ccc1c2c2c(F)cccc2n1CCCF [Compound 1-14]	> 20	> 20	> 20	< 1
CC(=O)c1ccc2c(c1)c1c3c(ccc1n2CCCF)C(=O)CC3 [Compound 1-15]	> 20	> 20	> 20	1 to 5
O=C1CCc2c1ccc1c2c2cc(Br)ccc2n1CCCF [Compound 1-16]	> 20	> 20	> 20	1 to 5
O=C1NCCOc2c1ccc1c2c2ccccc2n1CCCF [Compound 2-5]	> 20	> 20	> 20	< 1
O=c1[nH]ccc2c1ccc1c2c2ccccc2n1CCCF [Compound 3-2]	> 20	> 20	> 20	< 1
CCCn1c2ccccc2c2c3c(ccc21)C(=O)N(C)C3 [Compound 4-1, 2-Methyl-6-propyl-1,2-dihydro-6H-pyrrolo[3,4-c]carbazol-3-one]	1 to 5	< 1	> 20	< 1
O=c1c2ccc3c(c2ccn1CCO)c1ccccc1n3CCCF [Compound 4-3]	> 20	> 20	> 20	5 to 20
O=c1c2ccc3c(c2ccn1CCN1CCCC1)c1ccccc1n3CCCF [Compound 4-4]	5 to 20	5 to 20	5 to 20	5 to 20
O=c1[nH]cnc2c1ccc1c2c2ccccc2n1CCCF [Compound 5-2]	> 20	> 20	> 20	< 1
O=c1[nH]ncc2c1ccc1c2c2ccccc2n1CCCF [Compound 5-3]	> 20	> 20	> 20	< 1
N#Cc1cccc2c1c1c3cc[nH]c(=O)c3ccc1n2CCCF [Compound 8-3]	> 20	> 20	> 20	1 to 5
NC(=O)c1cccc2c1c1c3cc[nH]c(=O)c3ccc1n2CCCF [Compound 8-4]	> 20	> 20	> 20	5 to 20
O=C1CCc2c1ccc1c2c2ncccc2n1CCCF [Compound 10-2]	> 20	5 to 20	5 to 20	< 1
Cn1ncc2c(ccc3c2c2ncccc2n3CCCF)c1=O [Compound 10-7]	> 20	5 to 20	> 20	< 1
CCCn1c2cccnc2c2c3ccn(C)c(=O)c3ccc21 [Compound 10-9]	> 20	> 20	> 20	< 1
Cn1ccc2c(ccc3c2c2ncccc2n3CCCF)c1=O [Compound 10-10]	> 20	> 20	> 20	< 1
O=C1NCCc2c1ccc1c2c2ncccc2n1CCCF [Compound 11-2]	> 20	> 20	> 20	< 1
O=C1NCCOc2c1ccc1c2c2ncccc2n1CCCF [Compound 11-3]	> 20	> 20	> 20	1 to 5
O=c1[nH]ccc2c1ccc1c2c2ncccc2n1CCCF [Compound 13-1, 7-(3-Fluoropropyl)-3,7-dihydro-3,7,11-triaza-benzo[c]fluoren-4-one]	> 20	> 20	> 20	< 1
O=C1COc2c(ccc3c2c2ncccc2n3CCCF)N1 [Compound 13-2]	> 20	> 20	> 20	5 to 20
CN1Cc2c(ccc3c2c2ncccc2n3CCCF)C1=O [Compound 14-1, 6-(3-Fluoropropyl)-2-methyl-1,2-dihydro-6H-2,6,10-triazacyclopenta[c]fluoren-3-one]	> 20	5 to 20	> 20	< 1

Second part, led by results:

IC50 (Hela) [µM]	IC50 (MDA-MB-231) [µM]	IC50 (PC3) [µM]	Compound	IC50 (CWR22R) [µM]
> 20	> 20	> 20	CCCn1c2ccccc2c2c3c(ccc21)C(=O)CC3 [Compound 1-1, 6-Propyl-1,2-dihydro-6H-cyclopenta[c]carbazol-3-one]	< 1
5 to 20	5 to 20	5 to 20	Cn1c2ccccc2c2c3c(ccc21)C(=O)CC3 [Compound 1-3]	5 to 20
> 20	> 20	> 20	CCCn1c2ccccc2c2c3c(ccc21)C(=O)CCC3 [Compound 1-4]	< 1
> 20	> 20	> 20	CCCn1c2ccccc2c2c3c(ccc21)C(=O)CO3 [Compound 1-6]	< 1
> 20	> 20	> 20	O=C1COc2c1ccc1c2c2ccccc2n1CCCF [Compound 1-7]	< 1
> 20	> 20	> 20	CCCn1c2ccccc2c2c3c(ccc21)C(=O)CCO3 [Compound 1-8]	< 1
> 20	> 20	> 20	CCCn1c2ccccc2c2c3c(ccc21)C(=O)NC3 [Compound 1-10, 6-propyl-1,2-dihydro-6H-pyrrolo[3,4-c]carbazol-3-one]	< 1
> 20	> 20	> 20	O=C1NCc2c1ccc1c2c2ccccc2n1CCCF [Compound 1-11]	< 1
> 20	> 20	> 20	O=C1Cc2ccc3c(c2CN1)c1ccccc1n3CCCF [Compound 1-12]	< 1
> 20	> 20	> 20	CCCn1c2ccccc2c2c3c(ccc21)C(=O)NCC3 [Compound 2-1, 7-Propyl-2,3-dihydro-1H,7H-pyrido[3,4-c]carbazol-4-one]	< 1
> 20	> 20	> 20	O=C1NCCc2c1ccc1c2c2ccccc2n1CCCF [Compound 2-2]	< 1
5 to 20	5 to 20	> 20	O=C1NCCCc2c1ccc1c2c2ccccc2n1CCCF [Compound 2-3]	1 to 5
5 to 20	> 20	5 to 20	O=C1CCCc2c(ccc3c2c2ccccc2n3CCCF)N1 [Compound 2-4]	< 1
> 20	> 20	> 20	CCCn1c2ccccc2c2c3cc[nH]c(=O)c3ccc21 [Compound 3-1, 7-Propyl-3H,7H-pyrido[3,4-c]carbazol-4-one]	< 1
> 20	5 to 20	> 20	CCCn1c2ccccc2c2c3occc(=O)c3ccc21 [Compound 3-3]	< 1
5 to 20	1 to 5	> 20	CN1Cc2c(ccc3c2c2ccccc2n3CCCF)C1=O [Compound 4-2]	< 1
> 20	> 20	–	CCCn1c2ccccc2c2c3nc[nH]c(=O)c3ccc21 [Compound 5-1, 7-Propyl-3H-pyrimido[5,4-c]carbazol-4(7H)-one]	< 1
> 20	> 20	> 20	CCCn1c2ccccc2c2c3c(ccc21)CC(=O)N3C [Compound 6-1, 1-Methyl-6-propyl-3,6-dihydro-1H-pyrrolo[3,2-c]carbazol-2-one]	< 1
5 to 20	5 to 20	5 to 20	CCCn1c2ccccc2c2c3c(ccc21)C(O)CC3 (stereo not drawn) [Compound 7-1, 6-Propyl-1,2,3,6-tetrahydro-cyclopenta[c]carbazol-3-ol]	< 1
> 20	> 20	> 20	CCCn1c2ccccc2c2c3c(ccc21)CCC3 [Compound 7-2, 6-Propyl-1,2,3,6-tetrahydro-cyclopenta[c]carbazole]	1 to 5
5 to 20	5 to 20	> 20	O=c1[nH]c2ccc3c(c4ccccc4n3CCCF)c2o1 [Compound 8-2]	< 1
> 20	5 to 20	5 to 20	CCCn1c2cccnc2c2c3c(ccc21)C(=O)CC3 [Compound 10-1, 6-Propyl-1,2-dihydro-6H-6,10-diazacyclopenta[c]fluoren-3-one]	1 to 5
> 20	> 20	> 20	CCCn1c2cccnc2c2c3c(ccc21)C(=O)NC3 [Compound 10-5]	1 to 5
> 20	> 20	> 20	O=C1NCc2c1ccc1c2c2ncccc2n1CCCF [Compound 10-6, 6-(3-fluoropropyl)-1,2-dihydro-6H-2,6,10-triazacyclopenta[c]fluoren-3-one]	< 1
> 20	> 20	> 20	CCCn1c2cccnc2c2c3c(ccc21)C(=O)NCC3 [Compound 11-1, 7-Propyl-1,2,3,7-tetrahydro-3,7,11-triazabenzo[c]fluoren-4-one]	5 to 20
> 20	> 20	> 20	CCCn1c2cccnc2c2c3cc[nH]c(=O)c3ccc21 [Compound 12-1, 7-Propyl-3,7-dihydro-3,7,11-triazabenzo[c]fluoren-4-one]	5 to 20
